The test system of experiment [1] is XIAP. The experiment can be described thus: Co-immunoprecipitation of ARTS-XIAP complexes in COS-7 cells. It counts as cell-based, African Green Monkey. The method, then: (§1) Protein extracts were prepared with lysis buffer (150 mM NaCl, 50 mM Tris-HCl (pH 8), 1% NP-40, 0.5% deoxycholate acid) with protease inhibitors. Lysates containing equal amounts of total protein were pre-cleared overnight with 1 mg mouse IgG (Sigma) coupled with protein A/G-Sepharose mix (Amersham Biosciences) and the beads centrifuged. Supernatants were immuno-precipitated using 5 μl of anti-ARTS antibody for 4 h, anti-XIAP antibody, rabbit anti-myc antibody, or mouse IgG (negative control). Protein A/G Sepharose beads were added for 1 hour and washed four times with PBS. Antibodies against XIAP (as above), Myc (Santa Cruz), or anti-ARTS (NT) antibodies directed against the common N′ terminus of ARTS and H5 (ProSci Incorporated) were used for Western blot.

A further experiment deals with ARTS. The experiment can be described thus: Cell fractionation, ARTS levels in sub-cellular fractions. In kind it is cell-based. The settings on record: treated with staurosporine (STS) for 1 hour. On the procedure:
Cells were homogenized in 20 mM HEPES-KOH, pH 7.5, 10 mM KCl, 1.5 mM MgCl2, 1 mM sodium EDTA, 1 mM sodium EGTA, and 1 mM dithiothreitol in the presence of 250 mM sucrose and protease inhibitors. Homogenates were centrifuged at 500×g for 5 min at 4° C., and the supernatant was centrifuged at 10,000×g for 20 min to obtain mitochondria. The pellet was washed and solubilized in TNC buffer (10 mM Tris acetate, pH 8.0, 0.5% Nonidet P-40 (NP-40), 5 mM CaCl2) with protease inhibitors. Protein concentration was determined with a Micro-BCA kit (Pierce).

For experiment [2], the system named is XIAP. The experiment can be described thus: Co-immunoprecipitation of ARTS-XIAP complexes in NRP154 cells. In kind it is cell-based, rat. The method, then: as §1
A further experiment has as its system COS-7 cells. The experiment can be described thus: Immunofluorescence of ARTS and XIAP localization in COS-7 cells. It counts as cell-based, African Green Monkey. The conditions noted are these: for ARTS and XIAP co-localization: COS-7 cells transfected with AU5-ARTS and pcDNA3-Myc-XIAP, 100 mM etoposide. The method, then:
Cells were fixed with 4% paraformaldehyde in PBS for 20 min at room temperature, washed with PBS, permeabilized with 0.5% Triton-X in PBS for 5 min, and incubated with primary antibodies for 2 hours at room temperature (rabbit polyclonal anti-ARTS (1:20,000; Sigma), monoclonal anti-ARTS, and/or monoclonal anti-XIAP (1:500; used in subsequent Examples). Cells were washed three times with PBS/0.1% Triton-X and incubated with FITC conjugated anti-mouse and Rhodamin^TX-conjugated anti-rabbit secondary antibodies (Jackson). Images were analyzed using a confocal laser microscope (Zeiss LSM 510). Mitochondria were visualized with MitoTracker® Red CMXRos (Molecular Probes/Invitrogen).
For caspase inhibition, we added […] of BOC-Asp(Ome)CH2F (Enzyme Systems Products) one hour prior to addition of the apoptotic agents.

For experiment [3], the target named is T1, XIAP (Homo sapiens, UniProt P98170).
T1 construct: made in house; host or cells: bacteria (pGEX-XIAP plasmid obtained from Dr. Colin S. Duckett)
The experiment can be described thus: GST pull-down assay of ARTS and XIAP. The settings on record: lysates of COS-7 cells transfected with AU5-tagged construct; Western blot anti-AU5. It counts as binding. From the text: For the glutathione-S-transferase (GST)-pull down assays, ARTS was subcloned into the pGEX 4T™ (Pharmacia Biotech) construct; GST-ARTS fusion protein was generated by Polymerase Chain Reaction (PCR) using the following primers: • BamHI-5′-[…]-3′ (SEQ ID No: 4) and • EcoRI-5′ […]-3′ (SEQ ID No: 5) and cloned into BamHI and EcoRI sites in pGEX 4T. Preparation of Beads
For in vitro binding studies, recombinant GST-ARTS or GST-XIAP fusion proteins were purified from bacteria. After sonication, 0.1% Triton X-100 and protease inhibitors (Mini-Complete™, Roche) were added to the bacterial extract followed by 10,000 rotations per minute (RPM) centrifugation. Supernatants of bacterial extracts were collected and incubated in the presence of glutathione-Sepharose 4B beads (Amersham Biosciences) for 30 minute at 4° C. The beads were washed three times.
Cells were lysed in RIPA buffer (150 mM NaCl, 50 mM Tris-HCl (pH 8), 1% NP-40, 0.1% SDS, 0.5% deoxycholate acid containing protease inhibitors (mini Complete, Roche)). Samples were divided into two tubes; one was rotated for 4 h at 4° C. with GST-ARTS fusion protein coupled with the glutathione beads, or GST-XIAP fusion protein. The second tube was incubated with glutathione beads alone (negative control). Samples were centrifuged at 4000-RPM at 4° C. for 4 minute and washed five times in lysis buffer, then boiled in sample buffer for 5 minutes to elute bound proteins Proteins were separated on 12.5% SDS-PAGE gel followed by Western blot analysis using monoclonal anti-ARTS antibody (Sigma), monoclonal anti-XIAP antibody (BD Transduction Laboratories) or monoclonal anti-myc antibody (Clontech).
In general terms: Immunoblotting shows a protein as a band on a membrane.

For experiment [4] the following is noted: Larisch S et al, Nat Cell Biol 2: 915-921, 2000; cited from earlier work.

Data on 3 molecules can be found in patent US20050227302A1, “Induction of apoptosis via ARTS-IAP complexes” (priority 2004, published 2005).

T1 sequence (P98170 whole entry): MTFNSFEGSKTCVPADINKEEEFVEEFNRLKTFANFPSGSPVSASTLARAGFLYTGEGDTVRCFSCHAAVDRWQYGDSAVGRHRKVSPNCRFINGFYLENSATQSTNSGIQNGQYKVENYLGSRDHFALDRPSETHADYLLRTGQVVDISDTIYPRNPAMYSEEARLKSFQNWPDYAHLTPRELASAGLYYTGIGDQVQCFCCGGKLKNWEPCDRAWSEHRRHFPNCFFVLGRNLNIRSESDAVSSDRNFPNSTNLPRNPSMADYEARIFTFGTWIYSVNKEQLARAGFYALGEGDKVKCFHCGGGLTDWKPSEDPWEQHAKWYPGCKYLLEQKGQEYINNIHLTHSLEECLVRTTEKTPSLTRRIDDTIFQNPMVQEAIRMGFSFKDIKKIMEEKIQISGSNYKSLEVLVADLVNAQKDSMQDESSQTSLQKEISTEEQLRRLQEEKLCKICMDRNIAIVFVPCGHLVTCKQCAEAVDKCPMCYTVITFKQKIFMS

As to `CN[C@@H]1C[C@H]2O[C@@](C)([C@@H]1OC)n1c3ccccc3c3c4c(c5c6ccccc6n2c5c31)C(=O)NC4` [staurosporine, reference compound], the ARTS-XIAP binding result in the experiment with XIAP [1] (COS-7 cells, endogenous proteins, three hours of incubation with staurosporine) is on record as “significant increase in ARTS-XIAP binding”. Also, the “ARTS levels in the cytosol” value with ARTS is listed as “strongly increased”.
For `COc1cc([C@@H]2c3cc4c(cc3[C@@H](O[C@@H]3O[C@@H]5CO[C@@H](C)O[C@H]5[C@H](O)[C@H]3O)[C@H]3COC(=O)[C@H]23)OCO4)cc(OC)c1O` [etoposide], the results for the ARTS-XIAP complexes entry in the experiment on XIAP [2] (6 hours of etoposide treatment (100 μM)) and in the experiment on XIAP [2] (three hours of etoposide treatment (100 μM)) were “increased further” and “a large number of ARTS-XIAP complexes were detected”, respectively. For the same molecule, the ARTS localization entry in the experiment on COS-7 cells (ARTS-transfected COS-7 cells treated with etoposide, absence of caspase inhibitors) is given as “accumulated ARTS in the nucleus”. Further, the “ARTS and XIAP co-localization” value in the experiment on COS-7 cells (2 hours) is “extensive overlap between ARTS and XIAP staining”; with COS-7 cells (16 hours), “most of the staining for both proteins was confined to the nucleus”.

B1: H5: H5 septin protein derived by differential splicing from the same locus as ARTS; considerably larger protein (protein)
chain: MDRSLGWQGNSVPEDRTEAGIKRFLEDTTDDGELSKFVKDFSGNASCHPPEAKTWASRPQVPEPRPQAPDLYDDDLEFRPPSRPQSSDNQQYFCAPAPLSPSARPRSPWGKLDPYDSSEDDKEYVGFATLPNQVHRKSVKKGFDFTLMVAGESGLGKSTLVNSLFLTDLYRDRKLLGAEERIMQTVEITKHAVDIEEKGVRLRLTIVDTPGFGDAVNNTECWKPVAEYIDQQFEQYFRDESGLNRKNIQDNRVHCCLYFISPFGHGLRPLDVEFMKALHQRVNIVPILAKADTLTPPEVDHKKRKIREEIEHFGIKIYQFPDCDSDEDEDFKLQDQALKESIPFAVIGSNTVVEARGRRVRGRLYPWGIVEVENPGHCDFVKLRTMLVRTHMQDLKDVTRETHYENYRAQCIQSMTRLVVKERNRNKLTRESGTDFPIPAVPPGTDPETEKLIREKDEELRRMQEMLHKIQKQMKENY
modifications: left off: small tags and cut ends
Regarding B1, in the experiment with XIAP [3], the “binding to GST-XIAP” value is “Neither ARTSΔC nor H5 were able to bind to XIAP”. Also, the “binding to XIAP in co-IP” value in the experiment on XIAP [1] (COS-7 cells co-transfected with pcDNA-mycXIAP and AU5-tagged construct) was “Neither of these mutants bound to XIAP”. Further, the pro-apoptotic activity entry in experiment [4] is listed as “lacks pro-apoptotic activity”.
